Assay: Human HepG2 cell viability assay in 384 well format
Type: toxicity, cell-based
Parameters: dose 125 nL, time 70.5 hour; concentration not given beside the values
Conditions: HepG2 cells, read-out: Inhibition

Compound	cytotoxicity at 70.5 h
CCn1cc(NC(=O)NC(CO)Cc2c[nH]c3ccccc23)cn1 (configuration not stated)	-4.69%
CC(C)C1CCCN1C(=O)c1ccc(-n2ncc(C#N)c2N)cc1 (configuration not stated)	-5.76%
COc1ccc(CNC(=O)NCc2nc(C)c(C)s2)cn1	-5.21%
CCOc1cc(CNC(=O)NCc2nc(C)c(C)s2)ccn1	-5.57%
Cn1ncnc1CCNC(=O)c1cc(Cl)c(Cl)n1C	-2.76%
O=S1(=O)CCC(n2cc(CNCC3(c4ccccc4)CC3)cn2)C1 (configuration not stated)	30.7%
Cc1cc(Cl)cc(C)c1CNC1CCN(CC(=O)N(C)C)CC1	-2.67%
CCN(Cc1ccoc1)C(=O)NC1CCN(CC2CCCC2)CC1	-6.01%
CCN(Cc1ccoc1)C(=O)NC1CCN(CC=C(C)C)CC1	6.72%
Cn1c(SCC(O)COCc2ccc(Cl)cc2)nnc1C1CC1 (configuration not stated)	-3.52%
CCn1cc(S(=O)(=O)NC(CO)Cc2c[nH]c3ccccc23)cn1 (configuration not stated)	-7.79%
Cn1c(SCC(O)COCc2ccccc2Cl)nnc1C1CC1 (configuration not stated)	-8.57%
Cc1noc(CCCC(=O)N2CCCCC2c2nccs2)n1 (configuration not stated)	32%
O=S(=O)(NC(CO)Cc1c[nH]c2ccccc12)c1cncc(F)c1 (configuration not stated)	-4.62%
CC(C)(C)c1ncc(CNc2ccn(CCc3ccncc3)n2)s1	-10.2%
Cc1cc(N2CCOCC2)ccc1NC(C)c1nc(C(C)C)no1 (configuration not stated)	-0.714%
Cc1noc(C(C)Nc2ccc(N3CCOCC3)cc2C)n1 (configuration not stated)	-4.53%
c1ccc2nc(N3CCCC3c3nnc4n3CCCCC4)cnc2c1 (configuration not stated)	0.321%
Cc1cc(NC(=O)C(C)Nc2cccc(COCc3ccco3)c2)no1 (configuration not stated)	-13.8%
Cc1cc(N2CCCC2c2nnc3n2CCCCC3)nc(C)n1 (configuration not stated)	-3.38%
Cc1ccc(NS(=O)(=O)c2cnn(-c3ccccc3)c2)c(C(=O)O)c1	-5.8%
CC(C)c1noc(CN(CCC2CCCCC2)CC(N)=O)n1	-3.41%
COCCN(C(=O)c1ccn(-c2ccc(OC)cc2)n1)C(C)C(N)=O (configuration not stated)	20.6%
CCSc1ccc(C(=O)N2CCCCC2C(=O)N2CCCC2)cn1 (configuration not stated)	-0.733%
Clc1cncc(N2CCCC2c2nnc3n2CCCCC3)n1 (configuration not stated)	-17.1%
CC(CC(=O)NS(C)(=O)=O)C1CCCCC1 (configuration not stated)	-13.9%

Compound	cytotoxicity at 70.5 h
CCSc1ccc(C(=O)N2CCCCC2C(=O)NC(C)(C)C)cn1 (configuration not stated)	-7.45%
CCc1cc(NC(=O)C2CCCN(C(=O)NCC(C)C)C2)[nH]n1 (configuration not stated)	-17.1%
CCc1cc(NC(=O)C2CCCN(C(=O)c3ccncc3)C2)[nH]n1 (configuration not stated)	-10.6%
COc1ccc(-n2ccc(C(=O)N(C)C(C)C3(C)CC3)n2)cc1 (configuration not stated)	21.1%
COCC(O)CNC(=O)Nc1c(F)cc(F)cc1-c1ccccc1 (configuration not stated)	-11.2%
O=C(O)CCN(Cc1ccc(F)c(F)c1)C(=O)C1CC1	-11.3%
Cc1cc(F)ccc1-n1cc(O)c(C(=O)NCC2(O)CCC2)n1	28.4%
COCCCN(C)C(=O)c1cccc(Nc2cnccn2)c1	24.1%
Cc1noc(CCCC(=O)N(CCC(=O)O)Cc2ccc(F)c(F)c2)n1	-3.72%
Cc1cc(N2CCCC2Cn2nc(C)cc2C)n2ncnc2n1 (configuration not stated)	29%
COc1ccc(NC(=O)CSc2nc(C)c(C)c(C)c2C#N)cn1	-2.39%
COc1ccc(C(C)NC(=O)NCCNc2ccccn2)c(OC)c1 (configuration not stated)	27.8%
COc1cc(C)nc(N2CCN(C(C)c3nc(C4CC4)no3)CC2)n1 (configuration not stated)	-10.4%
Cc1cc(N2CCCCC2Cn2nc(C)cc2C)n2ncnc2n1 (configuration not stated)	-4.18%
COc1ccc(C(C)NC(=O)NCCc2ccc(C)nc2)c(OC)c1 (configuration not stated)	24%
NC(=O)CCC1CCCN(c2ccc3c(Cl)ccnc3c2F)C1 (configuration not stated)	-6.43%
COc1ccc(S(=O)(=O)N2CCC(OCc3ccccn3)C2)cc1Br (configuration not stated)	-9.24%
CC(Cn1cccn1)NC(=O)N(C)Cc1cnn(C)c1 (configuration not stated)	-7.21%
CCCNC(c1cccnc1)c1ccc(F)cc1F (configuration not stated)	42.9%
CCNC(c1ccc(F)cc1)c1cccnc1 (configuration not stated)	-19.7%
CN(Cc1cnn(C)c1)C(CO)c1cccc(Br)c1 (configuration not stated)	-16.5%
CN(Cc1cnn(C)c1)C(=O)c1ccc(Cl)c(N2CCNC2=O)c1	-22.2%
Cc1oc(-c2ccsc2)nc1CN1CCCC(c2ccnn2C)C1 (configuration not stated)	-23.6%
Cc1cc(CS(=O)(=O)C(C)C(=O)N(C)c2ccccc2)on1 (configuration not stated)	-28.7%
CCCNC(=O)c1cccc(CNCc2csc(CC)n2)c1	-106%
CCCNC(=O)c1cccc(CNCc2csc(C(C)C)n2)c1	-78.5%

Compound	cytotoxicity at 70.5 h
CCS(=O)(=O)NC(CCSC)C(=O)Nc1cc(F)ccc1C (configuration not stated)	-36.1%
Cc1ccc(C(NCC(=O)N2CCNC(=O)C2)C(F)(F)F)cc1 (configuration not stated)	-113%
CC(NC(=O)Nc1ccc(-n2cncn2)cc1)C(=O)NC(C)(C)C (configuration not stated)	-29.6%
CCC(C)NC(=O)c1cccc(CNCc2csc(C(C)C)n2)c1 (configuration not stated)	-89.9%
O=C(CN(CC(O)c1ccc(F)cc1)C1CC1)NCc1cccs1 (configuration not stated)	-114%
CNS(=O)(=O)c1ccc(CNC(=O)N(CC(C)C)C(C)C)cc1	-96.5%
CCN(C(=O)C(C)S(=O)(=O)Cc1nc(C)no1)c1ccccc1 (configuration not stated)	-96.7%
COc1ccc(NC(C)c2nnnn2-c2ccccc2)cn1 (configuration not stated)	-96.1%
COc1ccc(NC(C)c2nnnn2-c2ccccc2)cc1F (configuration not stated)	-95.4%
CCNc1nc(C(=O)N(C)Cc2nc(CC)no2)cs1	-109%
NC(=O)CCSc1ccccc1NCc1ccc(Cl)s1	-95%
CC(NC(=O)CCC(C)(C)C)C(=O)Nc1ccc(-n2cncn2)cc1 (configuration not stated)	-24.9%
CC(C)(C)c1nc(CNc2ccccc2SCCC(N)=O)cs1	-107%
CCC(C)(C)CC(=O)NC(C)C(=O)Nc1ccc(-n2cncn2)cc1 (configuration not stated)	-81.3%
CC(C)CCS(=O)(=O)N1CCCC(c2nncn2C(C)C)C1 (configuration not stated)	-33.9%
c1ccc(CNc2ccccc2N2CCCC2)nc1	-18.2%
CC(C)NC(=O)CNC(C)c1c(F)cccc1Cl (configuration not stated)	-79.9%
CCOCCN1CCN(CC(O)c2ccc(OC)cc2)CC1 (configuration not stated)	36.2%
CSCc1cc(C(=O)NC2(C#N)CCSC2)ccc1F (configuration not stated)	-8.71%
CN1CCN(c2ccc(Br)cc2NC(=O)c2ccco2)CC1	2.12%
CCN(C(=O)c1cc(C)oc1C)C1CC1	-4.05%
CC(C)N(CCCNC(=O)C1CCOCC1)S(C)(=O)=O	-5.89%
CC1(c2ccc(Br)cc2)CC(=O)N(CCC(N)=O)C1=O (configuration not stated)	-6.18%
CC(C)N(CCCNC(=O)C1CCCN(C(N)=O)C1)S(C)(=O)=O (configuration not stated)	-5.29%
CCN(C(=O)Nc1cc(C)on1)C(C)c1cccc(O)c1 (configuration not stated)	-9.79%
CCOCCN1CCN(CC(O)c2ccc(C)c(C)c2)CC1 (configuration not stated)	-10.1%

Compound	cytotoxicity at 70.5 h
CC(CO)NC(=O)c1ccc(NCc2ccc(F)c(F)c2)cc1 (configuration not stated)	-0.038%
COCCNC(=O)Cn1cc(NC(=O)c2cc(Cl)c(Cl)n2C)cn1	0.862%
COCCNC(=O)Cn1cc(NC(=O)c2ccc(C(C)(C)C)cc2)cn1	33.3%
CCOc1ccc(C(F)(F)F)cc1NC(=O)NCc1noc(C)n1	-8.58%
N#CC1(NC(=O)c2ccc(F)c(Br)c2)CCSC1 (configuration not stated)	-8.42%
O=C(Nc1cccc(OCC(F)F)n1)c1ccncc1	-8.53%
O=C(Nc1cccc(OCC(F)F)n1)c1ccncc1F	-6.41%
CC(CO)NC(=O)c1ccc(NCc2cc(C#N)ccc2F)cc1 (configuration not stated)	-0.552%
O=C(CN(CC1CCC1)CC(F)(F)F)N1CCOCC1	-5.14%
Cc1nc(CSCc2ccc(OCC(F)(F)F)nc2)no1	-7.83%
CCOc1cccc(CSC(C)c2nc(C)no2)n1 (configuration not stated)	-3.8%
Cc1ccc(S(=O)(=O)N(CCO)C2CC2)cc1N(C)C	2.04%
COc1c(C)cnc(CN2CCCC2c2noc(C)n2)c1C (configuration not stated)	3.95%
CCn1cc(CNCCNc2ncc(Cl)cc2Cl)cn1	10.4%
CCCNC(=O)c1[nH]nc(C2CC2)c1Br	-5.95%
COC(=O)c1ccc(OCCn2cnc(C#N)n2)cc1	-24.3%
N#Cc1ccc(CN(CC(N)=O)Cc2cccc(F)c2)cc1	-2.99%
Cc1nc(CNC(=O)Nc2c(C)n[nH]c2C)cs1	-9.25%
CN(CCc1cccc2ccccc12)Cc1nc(N)nc(N(C)C)n1	28.3%
CC(C)N(CC(N)=O)C(=O)CCC(=O)c1ccc(F)cc1F	-6.11%
Cc1cc(Br)ccc1C(=O)Nc1c(C(N)=O)n[nH]c1C	-9.24%
Cc1ccc(F)c(C(=O)Nc2c(C(N)=O)n[nH]c2C)c1	-10.1%
Cc1cccc(C(=O)Nc2c(C(N)=O)n[nH]c2C)c1C	-5.24%
Cc1nnc(C(C)NCC2(c3c(F)cccc3F)CCCC2)o1 (configuration not stated)	-2.47%
